# Measurements as given in article PMC10176470, “Engaging a Non-catalytic Cysteine Residue Drives Potent and Selective Inhibition of Caspase-6” (Journal of the American Chemical Society, 2023).
# Tests used:
# Type in all cases: cell-based
# [1] = molecular target: T1, proteins of HEK293T cells transiently overexpressing caspase-6 (Homo sapiens, UniProt Q9UQ80); conditions: protein PA2G4 (Q9UQ80)
# T1 sequence (Q9UQ80 1-394): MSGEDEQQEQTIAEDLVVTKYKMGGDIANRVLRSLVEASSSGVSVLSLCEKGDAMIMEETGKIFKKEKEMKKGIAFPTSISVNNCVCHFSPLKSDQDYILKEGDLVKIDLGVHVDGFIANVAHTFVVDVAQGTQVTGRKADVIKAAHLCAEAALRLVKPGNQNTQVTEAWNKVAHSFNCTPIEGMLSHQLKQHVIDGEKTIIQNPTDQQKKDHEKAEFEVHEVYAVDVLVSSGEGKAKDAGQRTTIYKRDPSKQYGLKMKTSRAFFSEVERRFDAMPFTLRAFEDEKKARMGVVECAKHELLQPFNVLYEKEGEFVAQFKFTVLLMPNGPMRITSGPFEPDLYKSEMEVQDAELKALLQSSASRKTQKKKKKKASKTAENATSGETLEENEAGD
# [2] = molecular target: proteins of HEK293T cells transiently overexpressing caspase-6 (Homo sapiens, UniProt P60900); conditions: exp_ref Probe; protein PSMA6 (P60900); analysis C6
# [3] = molecular target: proteins of HEK293T cells transiently overexpressing caspase-6 (Homo sapiens, UniProt P10809); conditions: protein HSPD1 (P10809)
# [4] = molecular target: T2, proteins of HEK293T cells transiently overexpressing caspase-6 (Homo sapiens, UniProt P27824); conditions: protein CANX (P27824)
# T2 sequence (P27824 21-592): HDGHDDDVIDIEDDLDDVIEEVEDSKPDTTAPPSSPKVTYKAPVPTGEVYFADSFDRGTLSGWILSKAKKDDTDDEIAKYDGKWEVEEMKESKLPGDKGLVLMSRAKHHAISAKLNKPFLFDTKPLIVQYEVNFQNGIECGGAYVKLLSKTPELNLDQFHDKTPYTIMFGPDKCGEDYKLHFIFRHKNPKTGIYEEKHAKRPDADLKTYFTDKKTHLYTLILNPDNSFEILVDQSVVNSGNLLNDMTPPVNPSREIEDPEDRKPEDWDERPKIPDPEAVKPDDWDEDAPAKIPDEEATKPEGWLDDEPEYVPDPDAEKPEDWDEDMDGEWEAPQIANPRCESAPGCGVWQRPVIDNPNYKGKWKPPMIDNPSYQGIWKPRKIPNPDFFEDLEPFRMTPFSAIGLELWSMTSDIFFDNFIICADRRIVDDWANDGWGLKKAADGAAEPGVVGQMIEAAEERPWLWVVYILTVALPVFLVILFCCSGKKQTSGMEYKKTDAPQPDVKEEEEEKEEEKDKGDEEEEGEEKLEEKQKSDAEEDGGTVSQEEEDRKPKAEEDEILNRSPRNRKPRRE
# [5] = molecular target: proteins of HEK293T cells transiently overexpressing caspase-6 (Homo sapiens, UniProt P11586); conditions: Probe; protein MTHFD1 P11586
# [6] = molecular target: proteins of HEK293T cells transiently overexpressing caspase-6 (Homo sapiens, UniProt P78371); conditions: exp_ref Probe; protein CCT2 (P78371); analysis C6
# [7] = molecular target: T3, proteins of HEK293T cells transiently overexpressing caspase-6 (Homo sapiens, UniProt Q99832); conditions: protein CCT7 (Q99832)
# T3 sequence (Q99832 1-543): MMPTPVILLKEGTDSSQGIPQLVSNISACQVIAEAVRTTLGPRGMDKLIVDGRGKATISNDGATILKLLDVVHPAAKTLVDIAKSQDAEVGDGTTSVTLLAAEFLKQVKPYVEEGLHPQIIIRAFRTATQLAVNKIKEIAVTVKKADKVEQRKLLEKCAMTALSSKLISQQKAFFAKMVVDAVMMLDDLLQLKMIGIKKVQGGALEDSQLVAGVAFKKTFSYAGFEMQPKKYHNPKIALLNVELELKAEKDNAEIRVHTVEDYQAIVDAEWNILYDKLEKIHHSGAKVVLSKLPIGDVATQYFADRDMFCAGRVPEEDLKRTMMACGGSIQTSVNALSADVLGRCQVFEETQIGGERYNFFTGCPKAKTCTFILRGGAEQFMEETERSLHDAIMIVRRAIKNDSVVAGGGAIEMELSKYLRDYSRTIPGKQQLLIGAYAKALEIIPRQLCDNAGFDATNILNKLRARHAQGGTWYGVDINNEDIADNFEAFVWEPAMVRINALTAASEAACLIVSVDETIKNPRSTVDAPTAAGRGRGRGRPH
# [8] = molecular target: proteins of HEK293T cells transiently overexpressing caspase-6 (Homo sapiens, UniProt P04181); conditions: exp_ref Probe; protein OAT (P04181); analysis C6
# [9] = molecular target: proteins of HEK293T cells transiently overexpressing caspase-6 (Homo sapiens, UniProt P02768); conditions: Probe; protein ALB P02768
# proteins of HEK293T cells transiently overexpressing caspase-6 (Homo sapiens, UniProt P02768), sequence (P02768 25-609): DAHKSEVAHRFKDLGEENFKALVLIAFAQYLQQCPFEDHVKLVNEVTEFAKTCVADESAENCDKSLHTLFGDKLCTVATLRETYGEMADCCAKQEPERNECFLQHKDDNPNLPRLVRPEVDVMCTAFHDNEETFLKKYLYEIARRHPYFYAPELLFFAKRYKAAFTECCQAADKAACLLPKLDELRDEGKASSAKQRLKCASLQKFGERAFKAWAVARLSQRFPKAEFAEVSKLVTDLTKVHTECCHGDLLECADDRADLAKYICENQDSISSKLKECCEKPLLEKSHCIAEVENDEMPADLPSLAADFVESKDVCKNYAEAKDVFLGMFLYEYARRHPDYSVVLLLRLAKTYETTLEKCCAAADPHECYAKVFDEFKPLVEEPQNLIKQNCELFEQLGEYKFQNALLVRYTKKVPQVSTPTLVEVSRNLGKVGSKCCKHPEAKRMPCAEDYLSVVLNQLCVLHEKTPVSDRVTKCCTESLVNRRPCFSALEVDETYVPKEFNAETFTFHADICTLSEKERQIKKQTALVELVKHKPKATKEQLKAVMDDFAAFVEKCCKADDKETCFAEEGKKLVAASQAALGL
# proteins of HEK293T cells transiently overexpressing caspase-6 (Homo sapiens, UniProt P10809), sequence (P10809 27-573): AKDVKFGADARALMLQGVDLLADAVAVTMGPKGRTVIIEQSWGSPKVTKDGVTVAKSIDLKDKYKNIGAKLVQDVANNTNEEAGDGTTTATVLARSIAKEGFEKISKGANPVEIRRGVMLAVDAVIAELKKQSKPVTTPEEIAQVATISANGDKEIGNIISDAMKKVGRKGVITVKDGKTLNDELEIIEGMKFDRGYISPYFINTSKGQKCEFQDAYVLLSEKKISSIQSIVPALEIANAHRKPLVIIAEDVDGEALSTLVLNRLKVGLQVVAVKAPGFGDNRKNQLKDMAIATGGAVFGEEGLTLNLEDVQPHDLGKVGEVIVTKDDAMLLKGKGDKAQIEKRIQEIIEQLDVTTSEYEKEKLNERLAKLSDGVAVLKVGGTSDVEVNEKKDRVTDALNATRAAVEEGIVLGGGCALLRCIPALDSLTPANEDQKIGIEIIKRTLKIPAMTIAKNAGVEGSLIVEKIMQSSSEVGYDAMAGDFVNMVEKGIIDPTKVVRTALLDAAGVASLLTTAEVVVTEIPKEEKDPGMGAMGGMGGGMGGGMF
# proteins of HEK293T cells transiently overexpressing caspase-6 (Homo sapiens, UniProt P11586), sequence (P11586 whole entry): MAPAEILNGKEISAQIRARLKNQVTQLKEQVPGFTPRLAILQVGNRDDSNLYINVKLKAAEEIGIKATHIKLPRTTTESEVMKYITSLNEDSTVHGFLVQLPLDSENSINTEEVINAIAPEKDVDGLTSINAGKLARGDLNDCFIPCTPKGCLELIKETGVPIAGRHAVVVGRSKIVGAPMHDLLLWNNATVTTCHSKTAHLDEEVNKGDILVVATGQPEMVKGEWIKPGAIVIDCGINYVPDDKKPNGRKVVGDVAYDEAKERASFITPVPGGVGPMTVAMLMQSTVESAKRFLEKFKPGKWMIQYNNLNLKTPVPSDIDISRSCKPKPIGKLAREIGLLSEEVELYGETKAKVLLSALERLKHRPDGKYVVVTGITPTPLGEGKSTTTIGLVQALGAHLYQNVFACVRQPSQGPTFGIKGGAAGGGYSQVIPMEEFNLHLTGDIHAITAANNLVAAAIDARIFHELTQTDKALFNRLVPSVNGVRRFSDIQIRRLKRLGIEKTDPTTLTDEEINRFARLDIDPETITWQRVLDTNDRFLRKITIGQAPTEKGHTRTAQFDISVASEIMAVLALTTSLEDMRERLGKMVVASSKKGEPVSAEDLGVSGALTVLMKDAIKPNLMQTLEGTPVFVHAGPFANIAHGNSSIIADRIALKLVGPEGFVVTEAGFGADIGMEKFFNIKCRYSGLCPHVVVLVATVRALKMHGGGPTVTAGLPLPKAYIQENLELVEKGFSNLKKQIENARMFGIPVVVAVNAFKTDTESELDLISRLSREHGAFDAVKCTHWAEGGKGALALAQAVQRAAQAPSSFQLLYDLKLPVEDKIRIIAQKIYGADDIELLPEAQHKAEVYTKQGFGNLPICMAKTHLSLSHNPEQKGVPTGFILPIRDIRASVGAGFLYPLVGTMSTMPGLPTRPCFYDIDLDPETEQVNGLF
# proteins of HEK293T cells transiently overexpressing caspase-6 (Homo sapiens, UniProt P78371), sequence (P78371 whole entry): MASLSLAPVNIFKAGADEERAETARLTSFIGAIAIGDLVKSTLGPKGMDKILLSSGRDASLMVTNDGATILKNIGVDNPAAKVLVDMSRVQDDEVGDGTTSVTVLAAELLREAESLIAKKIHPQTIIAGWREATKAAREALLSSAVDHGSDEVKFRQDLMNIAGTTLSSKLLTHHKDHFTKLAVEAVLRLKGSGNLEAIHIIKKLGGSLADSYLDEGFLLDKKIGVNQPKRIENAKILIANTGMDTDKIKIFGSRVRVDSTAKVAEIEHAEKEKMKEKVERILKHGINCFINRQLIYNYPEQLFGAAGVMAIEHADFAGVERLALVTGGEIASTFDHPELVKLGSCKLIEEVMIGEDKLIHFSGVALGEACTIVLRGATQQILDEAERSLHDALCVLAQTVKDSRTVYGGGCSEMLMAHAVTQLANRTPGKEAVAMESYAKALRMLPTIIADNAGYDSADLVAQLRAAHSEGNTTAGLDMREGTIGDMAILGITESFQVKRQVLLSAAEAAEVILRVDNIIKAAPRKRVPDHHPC
# proteins of HEK293T cells transiently overexpressing caspase-6 (Homo sapiens, UniProt P60900), sequence (P60900 whole entry): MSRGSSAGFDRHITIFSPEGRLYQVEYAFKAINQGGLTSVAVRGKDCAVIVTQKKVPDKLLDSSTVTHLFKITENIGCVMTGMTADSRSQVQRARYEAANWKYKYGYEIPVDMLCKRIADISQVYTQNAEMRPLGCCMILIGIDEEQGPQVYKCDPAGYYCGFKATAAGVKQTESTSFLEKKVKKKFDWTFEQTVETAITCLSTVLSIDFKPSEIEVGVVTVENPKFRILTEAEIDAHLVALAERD
# proteins of HEK293T cells transiently overexpressing caspase-6 (Homo sapiens, UniProt P04181), sequence (P04181 26-439): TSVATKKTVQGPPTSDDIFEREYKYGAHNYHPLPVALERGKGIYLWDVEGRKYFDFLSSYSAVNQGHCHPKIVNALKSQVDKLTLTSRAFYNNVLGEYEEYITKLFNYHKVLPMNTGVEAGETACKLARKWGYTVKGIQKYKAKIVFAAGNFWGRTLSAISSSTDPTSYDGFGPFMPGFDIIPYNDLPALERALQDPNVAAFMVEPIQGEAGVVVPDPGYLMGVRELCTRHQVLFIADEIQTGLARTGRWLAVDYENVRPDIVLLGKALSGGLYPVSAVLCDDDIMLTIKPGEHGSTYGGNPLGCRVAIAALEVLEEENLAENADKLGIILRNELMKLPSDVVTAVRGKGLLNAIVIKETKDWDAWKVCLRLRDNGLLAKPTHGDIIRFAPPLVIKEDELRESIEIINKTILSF
smiles,measurement,setting,value
C#CCOc1ccc([C@@H]2C[C@@H](C(=O)Nc3ccc(OC(F)(F)F)cc3)CN(S(=O)(=O)C=C)C2)cc1 (relative stereo) [13-t],enrich.exp.med.lin,[1],2.618
same,enrich.exp.med.log2,[1],1.389
same,enrich.exp.med,"[1]; exp_ref Probe, analysis C6",1.389
same,enrich.exp.med,[2],-0.241
same,enrich.exp.med,"[3]; exp_ref Probe, analysis C6",0.7989
same,enrich.exp.med.lin,[3],1.7398
same,enrich.exp.med.log2,[3],0.7989
same,enrich.exp.med,"[4]; exp_ref Probe, analysis C6",0.4691
same,enrich.exp.med.lin,[4],1.384
same,enrich.exp.med.log2,[4],0.4691
same,enrich.exp.med,[5],-1.178
same,enrich.exp.med,[6],0.6812
same,enrich.exp.med,"[7]; exp_ref Probe, analysis C6",0.5798
same,enrich.exp.med.lin,[7],1.495
same,enrich.exp.med.log2,[7],0.5798
same,enrich.exp.med,[8],1.012
same,enrich.exp.med,[9],-8.362
